Experiments:
Format in all cases: cell-based
Actinomyces naeslundii = test: Metabolic activity, Biolog phenotype microarray; details: A naeslundii
Method: (§1) The extent of metabolic activity of the tested bacteria in the presence of the above-mentioned acids after 24 hours and 48 hours was investigated through a high throughput phenotype microarray system (PM) for microbial cells (Biolog Inc.). Each PM can contain up to 95 different biochemical compounds (e.g. organic acids) that may act as substrates for bacteria as well as one negative control, not containing the substrates. Microarray plates were used in which the different wells of each plate were pre-loaded (by the manufacturer, Biolog Inc.) with different organic acids to be tested. Each bacterial species was tested using a separate microarray plate. Thus, a single bacterial species was tested with a variety of organic acids on each particular plate. The microarrays are based on redox technology, using cell respiration as a universal reporter. […] The observation of this color change indicates which of the substrates improve the metabolic activity and health of the cells.
(§2) Each bacterial species was collected from blood agar plates (incubated for 48 hours anaerobically at 37° C.) and transferred to an IF-0 Base inoculation fluid (Biolog Inc.), which is a nutritionally poor medium. […] A 1:5 dilution of this suspension was prepared by mixing 3 mL of the 42% transmittance cell suspension with 15 mL of an inoculation fluid (which inoculation fluid was formed by mixing 11.6 mL sterile water, 62.5 mL IF-0 base inoculation fluid and 0.9 mL of the tetrazolium dye “Biolog Redox Dye mix D”), resulting in a final cell density which was equal to 85% transmittance using a BioRad SmartSpec 3000 Photometer. For each of the acids tested, the microarray plate (obtained from the supplier (Biolog Inc.) with acid already present in the relevant wells in powder form) was directly inoculated with 100 μL/well of this 85% transmittance cell suspension.
(§3) All plates were incubated in an anaerobic atmosphere at 37° C. Color changes were measured spectrophotometrically at 492 nm (Thermo Scientific Multiskan Ascent) at 24 hrs and 48 hrs using the same plate at both time points.
(§4) The controls were also carried out three times, as above.

Streptococcus sobrinus = test: Metabolic activity, Biolog phenotype microarray; details: S sobrinus
Method: as §1, §2, §3, §4

Veillonella parvula = test: Metabolic activity, Biolog phenotype microarray; details: V parvula
Method: as §1, §2, §3, §4

Actinomyces viscosus = test: Metabolic activity, Biolog phenotype microarray; details: A viscosus
Method: as §1, §2, §3, §4

Prevotella intermedia = test: Metabolic activity, Biolog phenotype microarray; details: P intermedia
Method: as §1, §2, §3, §4

Fusobacterium nucleatum = test: Metabolic activity, Biolog phenotype microarray; details: F nucleatum
Method: as §1, §2, §3, §4

[1] = system: Aggregatibacter actinomycetemcomitans; test: Metabolic activity, Biolog phenotype microarray; details: A actinomycetemcomitans
Method: as §1, §2, §3, §4

Capnocytophaga sputigena = test: Metabolic activity, Biolog phenotype microarray; details: C sputigena
Method: as §1, §2, §3, §4

Streptococcus salivarius = test: Metabolic activity, Biolog phenotype microarray; details: S salivarius
Method: as §1, §2, §3, §4

Streptococcus sanguinis = test: Metabolic activity, Biolog phenotype microarray; details: S sanguinis
Method: as §1, §2, §3, §4

Streptococcus gordonii = test: Metabolic activity, Biolog phenotype microarray; details: S gordonii
Method: as §1, §2, §3, §4

Porphyromonas gingivalis = test: Metabolic activity, Biolog phenotype microarray; details: P gingivalis
Method: as §1, §2, §3, §4

Streptococcus mutans = test: Metabolic activity, Biolog phenotype microarray; details: S mutans
Method: as §1, §2, §3, §4

Tannerella forsythia = test: Metabolic activity, Biolog phenotype microarray; details: T forsythia
Method: as §1, §2, §3, §4

Streptococcus mitis = test: Metabolic activity, Biolog phenotype microarray; details: S mitis
Method: as §1, §2, §3, §4

[2] = system: beneficial oral bacteria and pathogenic oral bacteria; test: Metabolic activity, prebiotic effect over the whole panel; details: for prebiotic effect (metabolic activity): 24 hrs, threshold value of 2
Method: as §1, §2, §3, §4

Structure (SMILES) | metabolic activity, OD at 492 nm divided by OD of control (control = 1) (Actinomyces naeslundii; 24 hrs) | metabolic activity, OD at 492 nm divided by OD of control (control = 1) (Actinomyces naeslundii; 48 hrs) | metabolic activity, OD at 492 nm divided by OD of control (control = 1) (Streptococcus sobrinus; 24 hrs) | metabolic activity, OD at 492 nm divided by OD of control (control = 1) (Streptococcus sobrinus; 48 hrs) | metabolic activity, OD at 492 nm divided by OD of control (control = 1) (Veillonella parvula; 24 hrs) | metabolic activity, OD at 492 nm divided by OD of control (control = 1) (Veillonella parvula; 48 hrs) | metabolic activity, OD at 492 nm divided by OD of control (control = 1) (Actinomyces viscosus; 24 hrs) | metabolic activity, OD at 492 nm divided by OD of control (control = 1) (Actinomyces viscosus; 48 hrs) | metabolic activity, OD at 492 nm divided by OD of control (control = 1) (Prevotella intermedia; 24 hrs) | metabolic activity, OD at 492 nm divided by OD of control (control = 1) (Prevotella intermedia; 48 hrs) | metabolic activity, OD at 492 nm divided by OD of control (control = 1) (Fusobacterium nucleatum; 24 hrs) | metabolic activity, OD at 492 nm divided by OD of control (control = 1) (Fusobacterium nucleatum; 48 hrs) | metabolic activity, OD at 492 nm divided by OD of control (control = 1) ([1]; 24 hrs) | metabolic activity, OD at 492 nm divided by OD of control (control = 1) ([1]; 48 hrs) | metabolic activity, OD at 492 nm divided by OD of control (control = 1) (Capnocytophaga sputigena; 24 hrs) | metabolic activity, OD at 492 nm divided by OD of control (control = 1) (Capnocytophaga sputigena; 48 hrs) | metabolic activity, OD at 492 nm divided by OD of control (control = 1) (Streptococcus salivarius; 24 hrs) | metabolic activity, OD at 492 nm divided by OD of control (control = 1) (Streptococcus salivarius; 48 hrs) | metabolic activity, OD at 492 nm divided by OD of control (control = 1) (Streptococcus sanguinis; 24 hrs) | metabolic activity, OD at 492 nm divided by OD of control (control = 1) (Streptococcus sanguinis; 48 hrs) | further results
C[C@H](O)C(=O)O [L-lactic acid] | 1.6747 | 1.8440 | 0.8282 | 0.7747 | 3.4930 | 3.0003 | 1.5404 | 1.7915 | 0.9628 | 0.9344 | 0.8008 | 0.7884 | 1.7850 | 2.2055 | 1.4435 | 1.1474 | 0.9183 | 0.8317 | 0.9076 | 0.8849 | metabolic activity, OD at 492 nm divided by OD of control (control = 1) (Streptococcus gordonii; 24 hrs): 0.7156; metabolic activity, OD at 492 nm divided by OD of control (control = 1) (Streptococcus gordonii; 48 hrs): 0.6821; metabolic activity, OD at 492 nm divided by OD of control (control = 1) (Porphyromonas gingivalis; 24 hrs): 0.7480; metabolic activity, OD at 492 nm divided by OD of control (control = 1) (Porphyromonas gingivalis; 48 hrs): 0.7325; metabolic activity, OD at 492 nm divided by OD of control (control = 1) (Streptococcus mutans; 24 hrs): 0.8885; metabolic activity, OD at 492 nm divided by OD of control (control = 1) (Streptococcus mutans; 48 hrs): 0.8138; metabolic activity, OD at 492 nm divided by OD of control (control = 1) (Tannerella forsythia; 24 hrs): 0.8509; metabolic activity, OD at 492 nm divided by OD of control (control = 1) (Tannerella forsythia; 48 hrs): 0.8314; metabolic activity, OD at 492 nm divided by OD of control (control = 1) (Streptococcus mitis; 24 hrs): 1.0230; metabolic activity, OD at 492 nm divided by OD of control (control = 1) (Streptococcus mitis; 48 hrs): 0.9098; prebiotic effect (metabolic activity) [2]: exhibited prebiotic effects; speed of metabolism by beneficial versus pathogenic bacteria ([2]; value of 2 reached at 24 hrs for the beneficial but not the pathogenic bacteria): metabolized faster by the beneficial bacteria than by the pathogenic bacteria
O=C(O)C[C@H](O)C(=O)O [L-malic acid] | 0.9796 | 0.9086 | 1.0506 | 0.9898 | 2.0256 | 1.5012 | 0.9803 | 1.0090 | 0.9958 | 1.0146 | 0.8813 | 0.8215 | 1.6257 | 1.9196 | 0.8764 | 0.8870 | 0.9740 | 0.9426 | 0.8788 | 0.9018 | metabolic activity, OD at 492 nm divided by OD of control (control = 1) (Streptococcus gordonii; 24 hrs): 0.9161; metabolic activity, OD at 492 nm divided by OD of control (control = 1) (Streptococcus gordonii; 48 hrs): 0.8652; metabolic activity, OD at 492 nm divided by OD of control (control = 1) (Porphyromonas gingivalis; 24 hrs): 0.8367; metabolic activity, OD at 492 nm divided by OD of control (control = 1) (Porphyromonas gingivalis; 48 hrs): 0.8279; metabolic activity, OD at 492 nm divided by OD of control (control = 1) (Streptococcus mutans; 24 hrs): 0.9627; metabolic activity, OD at 492 nm divided by OD of control (control = 1) (Streptococcus mutans; 48 hrs): 0.8760; metabolic activity, OD at 492 nm divided by OD of control (control = 1) (Tannerella forsythia; 24 hrs): 0.9252; metabolic activity, OD at 492 nm divided by OD of control (control = 1) (Tannerella forsythia; 48 hrs): 0.9462; metabolic activity, OD at 492 nm divided by OD of control (control = 1) (Streptococcus mitis; 24 hrs): 0.9743; metabolic activity, OD at 492 nm divided by OD of control (control = 1) (Streptococcus mitis; 48 hrs): 0.8207; prebiotic effect (metabolic activity) [2]: exhibited prebiotic effects
